Experimental data from patent publication US20140314857A1, “FORMULATIONS FOR ENHANCED BIOAVAILABILITY OF ZANAMIVIR” (priority 2012, published 2014).
Values joined by “and” are separate entries in the source; they are usually repeats but may differ in a detail not shown here. Equal values may be shown once.

Assay: Intravenous and intraduodenal (bolus) bioavailability of zanamivir from Capmul MCM L8 25, 50, 75 µL (Example 7)
Settings: for Co: extrapolated to t = 0
From the text: Male Sprague-Dawley rats (Hilltop Labs), 3 animals per treatment group, 250-350 grams in weight, were fitted with a jugular vein cannula (JVC). Animals intended for intraduodenal dosing were also fitted with one or more intraduodenal cannula (IDC) and those intended for intravenous dosing were fitted with a second JVC. Food was withheld from the animals for a minimum of twelve hours prior to test article administration and was returned approximately four hours post-dose. Water was supplied ad libitum.
Intraduodenal doses composed of 1.5 mg of zanamivir and varying amounts of an enhancer (glycerol or Capmul MCM L8) were injected directly into the duodenum via the IDC. Intravenous dosing was conducted by the injection of 1.5 mg of zanamivir in 200 μL of PBS through a JVC. For some experiments, the absorption enhancer was administered intraduodenally 2 hr prior to administering 1.5 mg of zanamivir in PBS through a second IDC. Each intraduodenal dose was followed with the introduction of a small air bubble (˜10 μL) in the cannula followed by a flush of 125 μL of PBS to ensure the dose was given in full. The volume of PBS used for cannula flush was consistent across the treatment groups. The cannula was tied to prevent the PBS remaining in the cannula from entering the duodenum.
Blood samples collected via the JVC, approximately 400 μL each, were obtained at 2 min, 5 min, 15 min, 30 min, 60 min, 90 min, and 120 min, with sodium heparin used as an anti-coagulant. Each sample was placed into a chilled tube containing the anticoagulant and kept on ice until centrifugation at 4° C., 3,000×g, for 5 min. The plasma supernatants were stored at −70° C. until LC-MS analysis.
Dosing solution samples were assayed by LC-MS/MS using electrospray ionization. The chromatographic system consisted of Perkin Elmer series 200 micropumps and autosampler equipped with a Waters Atlantic® HILIC Silica 3 μM, 2.1×50 mm column. The mass spectrometer was a PE Sciex API 4000 with electrospray interface in multiple reaction monitoring mode. […] Stock solutions (1 mg/mL zanamivir) were prepared in water. Standards (eight concentrations) were prepared in the appropriate matched matrix (HBSSg or Sprague-Dawley rat plasma containing sodium heparin) and diluted 50-fold with methanol. Experimental samples were treated identically.
Standards and samples were prepared in Sprague Dawley rat plasma containing sodium heparin as an anticoagulant. An eight-point calibration curve was prepared at concentrations of 1000, 750, 500, 250, 100, 50, 25, and 10 ng/mL by serial dilution. Standard samples were treated identically to the study samples.
Plasma samples were extracted by protein precipitation in methanol.
In this example, the bioavailability of Zanamivir was evaluated after intraduodenal doses in male Sprague-Dawley rats. The test compound was dosed at 1.5 mg/animal through intravenous and intraduodenal routes from normal saline and Capmul MCM L8 formulations, respectively. Plasma levels were determined by LC-MS/MS analysis. Pharmacokinetic parameters were estimated by a non-compartmental model using WinNonlin v5.2.1 software.
Each ID dose in groups 2-4 will be followed with a small air bubble ([…]) and a flush of […] of PBS to insure the dose is given in full. The volume of PBS used for cannulae flush will be maintained consistent across the animals and the treatment groups. The cannula will then be tied to help prevent the PBS remaining in the cannula from entering the duodenum.

[1] = IV 1.5 mg/animal, Normal Saline, Ex.7, individual rats

CC(=O)NC1C(NC(=N)N)C=C(C(=O)O)OC1C(O)C(O)CO (stereo not drawn) [Zanamivir, 5-acetamido-4-guanidino-6-(1,2,3-trihydroxypropyl)-5,6-dihydro-4H-pyran-2-carboxylic acid]
Plasma concentration (ID bolus 1.5 mg/animal, 25 µL Capmul MCM L8, 0.25 hr, individual rats): 1500 ng/mL and 1380 ng/mL and 655 ng/mL
Plasma concentration (ID bolus 1.5 mg/animal, 25 µL Capmul MCM L8, 0.5 hr, individual rats): 950 ng/mL and 647 ng/mL
Plasma concentration (ID bolus 1.5 mg/animal, 25 µL Capmul MCM L8, 0.83 hr, individual rats): 1960 ng/mL and 2090 ng/mL and 913 ng/mL
Plasma concentration (ID bolus 1.5 mg/animal, 25 µL Capmul MCM L8, 1.0 hr, individual rats): 378 ng/mL and 259 ng/mL
Plasma concentration (ID bolus 1.5 mg/animal, 25 µL Capmul MCM L8, 1.5 hr, individual rats): 143 ng/mL and 119 ng/mL
Plasma concentration (ID bolus 1.5 mg/animal, 25 µL Capmul MCM L8, 2.0 hr, individual rats): 78.2 ng/mL and 66.8 ng/mL
t1/2 (ID bolus 1.5 mg/animal, 25 µL Capmul MCM L8, individual rats): 26.4 min and 30.7 min
Plasma concentration (ID bolus 1.5 mg/animal, 50 µL Capmul MCM L8, Ex.7, 0.25 hr, individual rats): 1400 ng/mL and 1270 ng/mL
Plasma concentration (ID bolus 1.5 mg/animal, 50 µL Capmul MCM L8, Ex.7, 0.5 hr, individual rats): 985 ng/mL and 774 ng/mL
Plasma concentration (ID bolus 1.5 mg/animal, 50 µL Capmul MCM L8, Ex.7, 0.83 hr, individual rats): 2130 ng/mL and 1600 ng/mL
Plasma concentration (ID bolus 1.5 mg/animal, 50 µL Capmul MCM L8, Ex.7, 1.0 hr, individual rats): 708 ng/mL and 551 ng/mL
Plasma concentration (ID bolus 1.5 mg/animal, 50 µL Capmul MCM L8, Ex.7, 1.5 hr, individual rats): 299 ng/mL and 217 ng/mL
Plasma concentration (ID bolus 1.5 mg/animal, 50 µL Capmul MCM L8, Ex.7, 2.0 hr, individual rats): 158 ng/mL and 99.5 ng/mL
t1/2 (ID bolus 1.5 mg/animal, 50 µL Capmul MCM L8, Ex.7, individual rats): 27.7 min and 24.3 min
Plasma concentration (IV 1.5 mg/animal, Normal Saline, Ex.7, 0.033 hr, individual rats): 22900 ng/mL and 20400 ng/mL
Plasma concentration (IV 1.5 mg/animal, Normal Saline, Ex.7, 0.083 hr, individual rats): 12300 ng/mL and 13500 ng/mL
Plasma concentration (IV 1.5 mg/animal, Normal Saline, Ex.7, 0.25 hr, individual rats): 9620 ng/mL and 11600 ng/mL
Plasma concentration (IV 1.5 mg/animal, Normal Saline, Ex.7, 0.5 hr, individual rats): 5500 ng/mL and 6450 ng/mL
Plasma concentration (IV 1.5 mg/animal, Normal Saline, Ex.7, 1.0 hr, individual rats): 1520 ng/mL and 2190 ng/mL
Plasma concentration (IV 1.5 mg/animal, Normal Saline, Ex.7, 1.5 hr, individual rats): 661 ng/mL and 862 ng/mL
Plasma concentration (IV 1.5 mg/animal, Normal Saline, Ex.7, 2.0 hr, individual rats): 220 ng/mL and 432 ng/mL
Co [1]: 32061 ng/mL and 34657 ng/mL and 26863 ng/mL
Co (IV 1.5 mg/animal, Normal Saline, Ex.7, mean): 31194 ± 3968 ng/mL and 31194 ng/mL
CL [1]: 10.7 mL/min/kg and 9.52 mL/min/kg
T1/2 [1]: 21.5 min and 25.6 min
Vss [1]: 0.260 L/kg and 0.278 L/kg
half-life (male, Sprague-Dawley, rat, in vivo, 1.5 mg, average half-life, ID bolus 1.5 mg/animal, 75 µL Capmul MCM L8): 24.9 ± 3.78 min
bioavailability (male, Sprague-Dawley, rat, in vivo, 1.5 mg, overall percent bioavailability): 25%
half-life (male, Sprague-Dawley, rat, in vivo, 1.5 mg, t1/2, ID bolus 1.5 mg/animal, 25 µL Capmul MCM L8, individual rats): 24.5 min
half-life (male, Sprague-Dawley, rat, in vivo, 1.5 mg, t1/2, ID bolus 1.5 mg/animal, 25 µL Capmul MCM L8, mean): 27.2 ± 3.18 min
half-life (male, Sprague-Dawley, rat, in vivo, 1.5 mg, t1/2, ID bolus 1.5 mg/animal, 50 µL Capmul MCM L8, Ex.7, individual rats): 21.8 min
half-life (male, Sprague-Dawley, rat, in vivo, 1.5 mg, t1/2, ID bolus 1.5 mg/animal, 50 µL Capmul MCM L8, Ex.7, mean): 24.6 min
half-life (male, Sprague-Dawley, rat, in vivo, 1.5 mg, t1/2, intraduodenal bolus, 1.5 mg/animal, 75 μL Capmul MCM L8, mean of 3 rats): 24.9 min
half-life (male, Sprague-Dawley, rat, in vivo, 1.5 mg, t1/2, intraduodenal bolus, 1.5 mg/animal, 75 μL Capmul MCM L8, rat 963): 29.2 min
half-life (male, Sprague-Dawley, rat, in vivo, 1.5 mg, t1/2, intraduodenal bolus, 1.5 mg/animal, 75 μL Capmul MCM L8, rat 964): 21.9 min
half-life (male, Sprague-Dawley, rat, in vivo, 1.5 mg, t1/2, intraduodenal bolus, 1.5 mg/animal, 75 μL Capmul MCM L8, rat 965): 23.6 min
half-life (male, Sprague-Dawley, rat, in vivo, 1.5 mg, t1/2, summary, intraduodenal, 1.5 mg/animal, 25 μL Capmul MCM L8): 27.2 min
half-life (male, Sprague-Dawley, rat, in vivo, 1.5 mg, t1/2, summary, intraduodenal, 1.5 mg/animal, 50 μL Capmul MCM L8): 24.6 min
half-life (male, Sprague-Dawley, rat, in vivo, 1.5 mg, t1/2, summary, intraduodenal, 1.5 mg/animal, 75 μL Capmul MCM L8): 24.9 min
Tmax (male, Sprague-Dawley, rat, in vivo, 1.5 mg, tmax, intraduodenal bolus, 1.5 mg/animal, 75 μL Capmul MCM L8, rat 964): 15 min
concentration at 0.25 hr (male, Sprague-Dawley, rat, in vivo, 1.5 mg/animal, Plasma concentration, ID bolus 1.5 mg/animal, 25 µL Capmul MCM L8, 0.25 hr, mean): 1180 ng/mL
concentration at 0.5 hr (male, Sprague-Dawley, rat, in vivo, 1.5 mg/animal, Plasma concentration, ID bolus 1.5 mg/animal, 25 µL Capmul MCM L8, 0.5 hr, individual rats): 916 ng/mL
concentration at 0.5 hr (male, Sprague-Dawley, rat, in vivo, 1.5 mg/animal, Plasma concentration, ID bolus 1.5 mg/animal, 25 µL Capmul MCM L8, 0.5 hr, mean): 838 ng/mL
concentration at 0.83 hr (male, Sprague-Dawley, rat, in vivo, 1.5 mg/animal, Plasma concentration, ID bolus 1.5 mg/animal, 25 µL Capmul MCM L8, 0.83 hr, mean): 1650 ng/mL
concentration at 1 hr (male, Sprague-Dawley, rat, in vivo, 1.5 mg/animal, Plasma concentration, ID bolus 1.5 mg/animal, 25 µL Capmul MCM L8, 1.0 hr, individual rats): 387 ng/mL
concentration at 1 hr (male, Sprague-Dawley, rat, in vivo, 1.5 mg/animal, Plasma concentration, ID bolus 1.5 mg/animal, 25 µL Capmul MCM L8, 1.0 hr, mean): 341 ng/mL
concentration at 1.5 hr (male, Sprague-Dawley, rat, in vivo, 1.5 mg/animal, Plasma concentration, ID bolus 1.5 mg/animal, 25 µL Capmul MCM L8, 1.5 hr, individual rats): 145 ng/mL
concentration at 1.5 hr (male, Sprague-Dawley, rat, in vivo, 1.5 mg/animal, Plasma concentration, ID bolus 1.5 mg/animal, 25 µL Capmul MCM L8, 1.5 hr, mean): 136 ng/mL
concentration at 2 hr (male, Sprague-Dawley, rat, in vivo, 1.5 mg/animal, Plasma concentration, ID bolus 1.5 mg/animal, 25 µL Capmul MCM L8, 2.0 hr, individual rats): 70.7 ng/mL
concentration at 2 hr (male, Sprague-Dawley, rat, in vivo, 1.5 mg/animal, Plasma concentration, ID bolus 1.5 mg/animal, 25 µL Capmul MCM L8, 2.0 hr, mean): 71.9 ng/mL
concentration at 0.25 hr (male, Sprague-Dawley, rat, in vivo, 1.5 mg/animal, Plasma concentration, ID bolus 1.5 mg/animal, 50 µL Capmul MCM L8, Ex.7, 0.25 hr, individual rats): 2060 ng/mL
concentration at 0.25 hr (male, Sprague-Dawley, rat, in vivo, 1.5 mg/animal, Plasma concentration, ID bolus 1.5 mg/animal, 50 µL Capmul MCM L8, Ex.7, 0.25 hr, mean): 1580 ng/mL
concentration at 0.5 hr (male, Sprague-Dawley, rat, in vivo, 1.5 mg/animal, Plasma concentration, ID bolus 1.5 mg/animal, 50 µL Capmul MCM L8, Ex.7, 0.5 hr, individual rats): 1250 ng/mL
concentration at 0.5 hr (male, Sprague-Dawley, rat, in vivo, 1.5 mg/animal, Plasma concentration, ID bolus 1.5 mg/animal, 50 µL Capmul MCM L8, Ex.7, 0.5 hr, mean): 1000 ng/mL
